Patent publication US20210395327A1, “Growth Hormone-Releasing Hormone Antagonists and Uses Thereof” (United States Government As Represented By The Department …, priority 2019, published 2021)
Non-standard residues stand in square brackets, D forms with d. Residues, ends and D or L forms follow the SMILES beside them. *: point of attachment. Phe(4-Cl) = N[C@@H](Cc1ccc(Cl)cc1)C(=O)O; hArg = N=C(N)NCCCC[C@H](N)C(=O)O; 12Ado = NCCCCCCCCCCCC(=O)O; Nle = CCCC[C@H](N)C(=O)O; Orn = NCCC[C@H](N)C(=O)O; Abu = CC[C@H](N)C(=O)O; PhAc = O=C(Cc1ccccc1)*

Columns and labels:
[1] = molecular target: T1, membrane GHRH-receptors on human anterior pituitary cells (Homo sapiens, UniProt Q02643); assay: Receptor binding, displacement of 125I-[His1,Nle27]-hGH-RH(1-32)NH2 on human pituitary membranes
T1 construct: Human pituitary was purchased from the National Hormone and Peptide Program; tissue National Hormone and Peptide Program; host or cells: human pituitary (membrane fractions)
T1 sequence (Q02643 23-423): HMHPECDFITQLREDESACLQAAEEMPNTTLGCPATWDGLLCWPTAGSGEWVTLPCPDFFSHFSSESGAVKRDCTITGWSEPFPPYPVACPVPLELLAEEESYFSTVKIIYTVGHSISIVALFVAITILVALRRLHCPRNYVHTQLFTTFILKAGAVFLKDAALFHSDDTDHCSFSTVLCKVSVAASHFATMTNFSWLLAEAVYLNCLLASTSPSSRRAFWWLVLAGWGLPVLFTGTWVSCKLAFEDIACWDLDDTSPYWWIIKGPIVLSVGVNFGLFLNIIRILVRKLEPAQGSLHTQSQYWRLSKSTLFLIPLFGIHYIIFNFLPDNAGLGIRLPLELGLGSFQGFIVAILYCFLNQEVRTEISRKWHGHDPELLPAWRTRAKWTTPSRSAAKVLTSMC
In short: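 Membrane fractions from human pituitary; peptides displace 125I-[His1,Nle27]-hGH-RH(1-32)NH2. IC50 is the dose giving 50% inhibition of specific binding, from duplicate tubes. Relative affinity is the ratio of test IC50 to hGH-RH(1-29)NH2 IC50.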

[2] = tested on: KATOIII stomach cancer cells; assay: In vitro cell viability, KATOIII; assay type: cell-based, human; details: antagonist 5 μM for 72 h, cell proliferation assay; MIA602 = 1
In short: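 Cells grown to ~60% confluence, serum-starved 24 h in 0.5% FBS, then treated with antagonists at 1, 2.5 or 5 μM or vehicle (0.1% DMSO) in quintuplicate for 72 h, medium replaced every 48 h. Viability read by MTS-type CellTiter 96 AQueous One assay; expressed as inhibitory potency relative to MIA602.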

[3] = tested on: HCC1806 breast cancer cells; assay: In vitro cell viability, HCC1806; assay type: cell-based, human; details: antagonist 5 μM for 72 h, cell proliferation assay; MIA602 = 1
Protocol: (§1) The inhibitory effects of the various synthesized GHRH antagonists were tested in cell proliferation assays in various human cancer cell lines including stomach cancer (KATOIII, N87), colon cancer (HT-29), urothelial cancer (J82, RT4), pancreatic cancer (PANC-1, CFPAC-1), prostatic cancer (PC3), breast cancer (MX-1, HCC1806), ovarian cancer (SK-OV-3, OVCAR-3) and lung cancer (HCC827, H460).
(§2) Cell culture. Human cancer cell lines including pancreatic (PANC-1 and CFPAC-1), lung (HCC827 and H460), stomach (NCI-N87 and KATOIII), urothelial (J82, RT4), prostatic (PC3), breast (MX-1 and HCC 1806), colorectal (HT-29), and ovarian (SK-OV-3 and OVCAR-3) were obtained from the American Type Culture Collection (ATCC) and cultured at 37° C. in a humidified 95% air/5% CO2 atmosphere in the medium recommended by ATCC.
(§3) In vitro cell viability. Cell viability was analyzed as follows: cancer cells including pancreatic (PANC-1 and CFPAC-1), lung (HCC827 and H460), stomach (NCI-N87 and KATOIII), urothelial (J82, RT4), prostatic (PC3) and breast (MX-1 and HCC 1806), colorectal (HT-29) and ovarian (SK-OV-3 and OVCAR-3) were grown on 96 well plates to ˜60% confluence, the cells were starved for 24 h in culture medium containing 0.5% FBS. Cells were then treated with GHRH antagonists MIA602 AVR compounds at concentrations of 1, 2.5 or 5 μM, or vehicle (0.1% DMSO) in quintuplicates for 72 hours. The medium was replaced every 48 hours. Cell viability was measured using CellTiter 96 aqueous one solution kit (Promega). Inhibitory effects of tested AVR compounds in comparison to that of MIA602 are presented as inhibitory potency.
(§4) Inhibitory effects of selected AVR compounds in comparison to that of MIA602 are presented as inhibitory potency (e.g., percentage of inhibition). […] The cell lines tested including lung cancer HCC827 (FIG. 2A), pancreatic cancer CFPAC-1 (FIG. 2B), stomach cancer N87 (FIG. 2C), colon cancer HT-29 (FIG. 2D), breast cancers MX-1 and HCC1806 (FIGS. 2 E, F). Based on the results of cell proliferation assay after cancer cells were treated with antagonist at concentration of 5 μM for 72H, the relative inhibitory potency of AVR antagonists in comparison to MIA-602 is summarized in Table 3 A and B. Over 60 AVR compounds were tested in 12 cancer cell lines.
(§5) Based on the results of cell proliferation assay after cancer cells were treated with antagonist at concentration of 5 µM for 72H, * at concentration of 2 µM for 72 H.

HCC827 lung cancer cells = assay: In vitro cell viability, HCC827; assay type: cell-based, human; details: antagonist 5 μM for 72 h, cell proliferation assay; MIA602 = 1
In short: (§6)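 Human tumour lines were exposed to GHRH antagonist at 1, 2.5 or 5 μM for 72 h with medium refreshed every 48 h, after 24 h in low-serum (0.5% FBS) medium. Cell viability (CellTiter 96) was expressed as inhibition relative to MIA602.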

[4] = tested on: CFPAC-1 pancreatic cancer cells; assay: In vitro cell viability, CFPAC-1; assay type: cell-based, human; details: antagonist 5 μM for 72 h, cell proliferation assay; MIA602 = 1
In short: as §6

[5] = tested on: PANC-1 pancreatic cancer cells; assay: In vitro cell viability, PANC-1; assay type: cell-based, human; details: antagonist 5 μM for 72 h, cell proliferation assay; MIA602 = 1
Protocol: as §1, §2, §3, §4

[6] = tested on: J82 urothelial cancer cells; assay: In vitro cell viability, J82; assay type: cell-based, human; details: antagonist 5 μM for 72 h, cell proliferation assay; MIA602 = 1
Protocol: as §1, §2, §3, §4

[7] = tested on: PC3 prostatic cancer cells; assay: In vitro cell viability, PC3; assay type: cell-based, human; details: antagonist 5 μM for 72 h, cell proliferation assay; MIA602 = 1
Protocol: as §1, §2, §3
(§7) Inhibitory effects of selected AVR compounds in comparison to that of MIA602 are presented as inhibitory potency (e.g., percentage of inhibition). […] The cell lines tested including lung cancer HCC827 (FIG. 2A), pancreatic cancer CFPAC-1 (FIG. 2B), stomach cancer N87 (FIG. 2C), colon cancer HT-29 (FIG. 2D), breast cancers MX-1 and HCC1806 (FIGS. 2 E, F). […]

MX-1 breast cancer cells = assay: In vitro cell viability, MX-1; assay type: cell-based, human; details: antagonist 5 μM for 72 h, cell proliferation assay; MIA602 = 1
Protocol: as §1, §2, §3, §4, §5

[8] = tested on: NCI-N87 stomach cancer cells; assay: In vitro cell viability (CellTiter 96), N87; assay type: cell-based, human; details: antagonist 5 μM for 72 h, cell proliferation assay; MIA602 = 1
Protocol: as §1, §2, §3, §4, §5

[9] = tested on: RT4 urothelial cancer cells; assay: In vitro cell viability, RT4; assay type: cell-based, human; details: antagonist 5 μM for 72 h, cell proliferation assay; MIA602 = 1
Protocol: as §1, §2, §3, §7

CCCC[C@H](NC(=O)[C@@H](NC(=O)[C@H](CC(=O)O)NC(=O)[C@H](CCC(N)=O)NC(=O)[C@H](CC(C)C)NC(=O)[C@H](CC(C)C)NC(=O)[C@H](CCCN)NC(=O)[C@H](Cc1c[nH]cn1)NC(=O)[C@H](C)NC(=O)[C@H](CO)NC(=O)[C@H](CC(C)C)NC(=O)[C@H](CCC(N)=O)NC(=O)[C@H](CC)NC(=O)[C@H](CC(C)C)NC(=O)[C@@H](NC(=O)[C@H](CCCCN)NC(=O)[C@H](CCCNC(=N)N)NC(=O)[C@H](Cc1ccc(OC)cc1)NC(=O)[C@H](CCCNC(=N)N)NC(=O)[C@H](C)NC(=O)[C@@H](NC(=O)[C@H](Cc1ccc(Cl)cc1)NC(=O)[C@@H](NC(=O)[C@H](C)NC(=O)[C@H](CC(=O)O)NC(=O)[C@@H](CCCNC(=N)N)NC(=O)[C@H](Cc1ccc(O)cc1)NC(=O)CCCCCCCCCCCNC(=O)Cc1ccccc1)[C@@H](C)CC)[C@@H](C)O)C(C)C)[C@@H](C)CC)C(=O)N[C@H](CCCNC(=N)N)C(=O)N[C@@H](CCCCNC(=N)N)C(N)=O [AVR-104, PhAC-Ada-Tyr-DArg-Asp-Ala-Ile-Cpa-Thr-Ala-Arg-Tyr(Me)-Arg-Lys-Val-Leu-Abu-Gln-Leu-Ser-Ala-His-Orn-Leu-Leu-Gln-Asp-Ile-Nle-DArg-Har-NH2] ({PhAc-12Ado}-Y[dR]DAI[Phe(4-Cl)]TARY(Me)RKVL[Abu]QLSAH[Orn]LLQDI[Nle][dR][hArg]-NH2)
IC50 [1]: 0.59 nM
relative inhibitory potency in comparison to MIA-602, Stomach KATOIII [2]: 1.321
relative inhibitory potency in comparison to MIA-602, Breast IICC1806 [3]: 1.220
relative inhibitory potency in comparison to MIA-602, Lung IICC827 (HCC827 lung cancer cells): 1.525
relative inhibitory potency in comparison to MIA-602, Pancreatic CFPAC-1 [4]: 1.502
relative inhibitory potency in comparison to MIA-602, Pancreatic Panc-1 [5]: 1.114
relative inhibitory potency in comparison to MIA-602, Urothelial J82 [6]: 3.377
relative inhibitory potency in comparison to MIA-602, Prostatic PC3 [7]: 1.440
relative inhibitory potency in comparison to MIA-602, Breast MX-1 (MX-1 breast cancer cells): 1.310
relative inhibitory potency in comparison to MIA-602, Stomach N87 [8]: 2.291
relative inhibitory potency in comparison to MIA-602, Urothelial RT4 [9]: 1.697
